The values below come from patent US20240409585A1, “MACROCYCLIC IMMUNOMODULATORS” (priority 2021, published 2024).

Each structure is given as a SMILES string. Numbered stars: 1 amine (or outer) side, 2 acyl side, 3 side chain; on linkers, the order of the positions; unused ones are H or OH. Bridge positions count the residues as written; N and C are the ends. Square brackets hold non-standard residues; d marks the D form. Peptide text beside a SMILES is read from it. * marks the point of attachment. ξ: configuration not given here. X36 = O=C([C@H](Cc1ccc(-c2ccsc2)cc1)N[*:1])[*:2]; Phe(4-COOH) = N[C@@H](Cc1ccc(C(=O)O)cc1)C(=O)O; Tyr(Ph) = N[C@@H](Cc1ccc(Oc2ccccc2)cc1)C(=O)O; Bip = N[C@@H](Cc1ccc(-c2ccccc2)cc1)C(=O)O; Phe(3-Me) = Cc1cccc(C[C@H](N)C(=O)O)c1; hTyr = N[C@@H](CCc1ccc(O)cc1)C(=O)O; Val(3-OH) = CC(C)(O)[C@H](N)C(=O)O; 2Thi = N[C@@H](Cc1cccs1)C(=O)O; Cha = N[C@@H](CC1CCCCC1)C(=O)O; Cit = NC(=O)NCCC[C@H](N)C(=O)O; Ile(3ξ) = CCC(C)[C@H](N)C(=O)O; dChg = N[C@@H](C(=O)O)C1CCCCC1; Thr(3ξ) = CC(O)[C@H](N)C(=O)O; Carboxymethyl = O=C(O)C*; NMeA = CN[C@@H](C)C(=O)O; Orn = NCCC[C@H](N)C(=O)O; Pra = C#CC[C@H](N)C(=O)O; Dab = NCC[C@H](N)C(=O)O; Dap = NC[C@H](N)C(=O)O; Piv = CC(C)(C)C(=O)*

T1 sequence (Q15116 25-288): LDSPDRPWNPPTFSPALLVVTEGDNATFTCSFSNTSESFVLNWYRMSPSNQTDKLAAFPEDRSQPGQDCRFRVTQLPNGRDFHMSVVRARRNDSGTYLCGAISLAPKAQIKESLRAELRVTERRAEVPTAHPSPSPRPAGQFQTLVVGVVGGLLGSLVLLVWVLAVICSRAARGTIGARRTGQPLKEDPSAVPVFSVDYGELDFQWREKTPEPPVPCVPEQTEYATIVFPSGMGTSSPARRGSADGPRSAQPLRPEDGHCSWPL

The assay concerns the target T1, PE-labeled human PD-L1-Ig binding to Jurkat cell line over-expressing human PD-1 (Jurkat-PD-1) (Homo sapiens, UniProt Q15116).
T1 construct: expressed in transfected cells; host or cells: Jurkat
Briefly: Jurkat-PD-1 Cell Binding High-Content Screening Assay (CBA): Method 1. Conditions: Jurkat-hPD-1 cells, PE-labeled PD-L1-Ig 20 nM final; read-out: Jurkat HPDL1 PD1 IC50 (uM) (Method 1).
Usually IC50 stands for the concentration needed to halve the response being measured. As for `CCC(C)[C@@H]1NC(=O)[C@H](Cc2ccc(-c3ccccc3)cc2)NC(=O)[C@H](C(C)C)NC(=O)[C@H](Cc2c[nH]c3ccccc23)NC(=O)[C@H](CC(=O)O)NC(=O)[C@H](Cc2ccc(O)cc2)NC(=O)[C@H](CC(N)=O)NC(=O)CSC[C@@H](C(=O)N[C@@H](CC(N)=O)C(N)=O)NC(=O)[C@H](C(C)O)NC(=O)[C@H](C(C)C)NC(=O)[C@H](CC(C)C)NC(=O)[C@H](CCN)NC(=O)[C@@H](CC(C)C)NC(=O)[C@H](C)N(C)C1=O` (stereo partly drawn) [Compound 2069] ({CH2CO}-NYDWV[Bip][Ile(3ξ)][NMeA][dL][Dab]LV[Thr(3ξ)]CN-NH2; thioether N-14), the 50% inhibitory concentration (IC50) was determined as 0.1 µM.
As for `C#CC[C@H](NC(=O)[C@@H](C)NC(=O)[C@@H]1CSCC(=O)N[C@@H]([C@@H](C)O)C(=O)N[C@@H](Cc2ccc(OCC(=O)O)cc2)C(=O)N[C@@H](CC(=O)O)C(=O)N[C@@H](Cc2cccc(C)c2)C(=O)N[C@@H](Cc2ccc(OCC(=O)O)cc2)C(=O)N[C@@H](Cc2ccc(-c3ccccc3)cc2)C(=O)N[C@@H](Cc2ccc(OCC(=O)O)cc2)C(=O)N(C)[C@@H](C)C(=O)N[C@H](CC(C)C)C(=O)N[C@@H](CCN)C(=O)N[C@@H](CC2CCCCC2)C(=O)N[C@@H](C(C)(C)O)C(=O)N[C@@H](CCC(=O)O)C(=O)N1)C(=O)O` [Compound 1944] ({CH2CO}-TY(Carboxymethyl)D[Phe(3-Me)]Y(Carboxymethyl)[Bip]Y(Carboxymethyl)[NMeA][dL][Dab][Cha][Val(3-OH)]EC[dA][Pra]-OH; thioether N-14), the IC50 stood at 0.9 µM.
`CC(C)C[C@@H]1NC(=O)[C@H](Cc2c[nH]c3ccccc23)NC(=O)[C@H](CC(=O)O)NC(=O)[C@H](Cc2ccc(C(=O)O)cc2)NC(=O)[C@H](Cc2ccc(OCC(=O)O)cc2)NC(=O)CSC[C@@H](C(=O)N[C@H](C)C(N)=O)NC(=O)[C@H](CO)NC(=O)[C@H](C(C)(C)O)NC(=O)[C@H](CC2CCCCC2)NC(=O)[C@H](CCN)NC(=O)[C@@H](CC(C)C)NC(=O)[C@H](C)N(C)C(=O)[C@H](C(C)(C)O)NC(=O)[C@H](Cc2ccc(-c3ccccc3)cc2)NC1=O` [Compound 1714] ({CH2CO}-Y(Carboxymethyl)[Phe(4-COOH)]DWL[Bip][Val(3-OH)][NMeA][dL][Dab][Cha][Val(3-OH)]SC[dA]-NH2; thioether N-14): the 50% inhibitory concentration (IC50) stood at 0.02 µM.
Then `CC(C)C[C@@H]1NC(=O)[C@H](Cc2c[nH]c3ccccc23)NC(=O)[C@H](CC(=O)O)NC(=O)[C@H](Cc2ccc(Oc3ccccc3)cc2)NC(=O)[C@H](Cc2ccccc2)NC(=O)CSC[C@@H](C(=O)N[C@@H](C)C(N)=O)NC(=O)[C@H](CO)NC(=O)[C@H](C(C)C)NC(=O)[C@H](CC(C)C)NC(=O)[C@H](CC(N)=O)NC(=O)[C@@H](C)NC(=O)[C@H](C)N(C)C(=O)[C@H](C(C)C)NC(=O)[C@H](Cc2ccc(-c3ccccc3)cc2)NC1=O` [Compound 1813] ({CH2CO}-F[Tyr(Ph)]DWL[Bip]V[NMeA][dA]NLVSCA-NH2; thioether N-14), with 0.3 µM; and `CC(C)C[C@@H]1NC(=O)[C@H](CCCN)NC(=O)[C@@H](CC(C)C)NC(=O)[C@H](C)N(C)C(=O)[C@H](CCCNC(=N)N)NC(=O)[C@H](Cc2ccc(-c3ccccc3)cc2)NC(=O)[C@H](C(C)C)NC(=O)[C@H](Cc2c[nH]c3ccccc23)NC(=O)[C@H](CC(=O)O)NC(=O)[C@H](Cc2ccc(C(=O)O)cc2)NC(=O)[C@H](Cc2ccccc2)NC(=O)CSC[C@@H](C(=O)N[C@@H](C)C(N)=O)NC(=O)[C@H]([C@@H](C)O)NC(=O)[C@H](C(C)C)NC1=O` [Compound 1156] ({CH2CO}-F[Phe(4-COOH)]DWV[Bip]R[NMeA][dL][Orn]LVTCA-NH2; thioether N-14), with 0.03 µM.
For `CC(C)C[C@@H]1NC(=O)[C@H](Cc2c[nH]c3ccccc23)NC(=O)[C@H](CC(=O)O)NC(=O)[C@H](Cc2ccc(C(=O)O)cc2)NC(=O)[C@H](Cc2ccc(OCC(=O)O)cc2)NC(=O)CSC[C@@H](C(=O)N[C@@H](C)C(N)=O)NC(=O)[C@H](CO)NC(=O)[C@H](C(C)C)NC(=O)[C@H](CC(C)C)NC(=O)[C@H](CC(N)=O)NC(=O)[C@@H](C)NC(=O)[C@H](C)N(C)C(=O)[C@H](C(C)C)NC(=O)[C@H](Cc2ccc(-c3ccccc3)cc2)NC1=O` [Compound 1560] ({CH2CO}-Y(Carboxymethyl)[Phe(4-COOH)]DWL[Bip]V[NMeA][dA]NLVSCA-NH2; thioether N-14), the IC50 worked out at 0.02 µM.
For the molecule `CC(C)C[C@@H]1NC(=O)[C@H](CCN)NC(=O)[C@@H](CC(C)C)NC(=O)[C@H](C)N(C)C(=O)[C@H](CCCNC(=N)N)NC(=O)[C@H](Cc2ccc(-c3ccccc3)cc2)NC(=O)[C@H](C(C)C)NC(=O)[C@H](Cc2c[nH]c3ccccc23)NC(=O)[C@H](CC(=O)O)NC(=O)[C@H](Cc2ccc(C(=O)O)cc2)NC(=O)[C@H](CC(N)=O)NC(=O)CSC[C@@H](C(=O)N[C@@H](C)C(N)=O)NC(=O)[C@H]([C@@H](C)O)NC(=O)[C@H](C(C)C)NC1=O` [Compound 1452] ({CH2CO}-N[Phe(4-COOH)]DWV[Bip]R[NMeA][dL][Dab]LVTCA-NH2; thioether N-14), the IC50 turned out to be 0.04 µM.
As to `Cc1cccc(C[C@@H]2NC(=O)[C@H](CC(=O)O)NC(=O)[C@H](Cc3ccc(OCC(=O)O)cc3)NC(=O)[C@H](CN)NC(=O)CSC[C@@H](C(=O)N[C@@H](CCNC(=O)C(C)(C)C)C(N)=O)NC(=O)[C@H]([C@@H](C)O)NC(=O)[C@H](C(C)C)NC(=O)[C@H](CC3CCCCC3)NC(=O)[C@H](CCN)NC(=O)[C@@H](CC(C)C)NC(=O)[C@H](C)N(C)C(=O)[C@H](Cc3ccc(OCC(=O)O)cc3)NC(=O)[C@H](Cc3ccc(-c4ccccc4)cc3)NC(=O)[C@H](Cc3ccc(OCC(=O)O)cc3)NC2=O)c1` [Compound 1866] ({CH2CO}-[Dap]Y(Carboxymethyl)D[Phe(3-Me)]Y(Carboxymethyl)[Bip]Y(Carboxymethyl)[NMeA][dL][Dab][Cha]VTC[Dab](Piv)-NH2; thioether N-14), the IC50 came to 0.05 µM.
Take `CC(C)C[C@@H]1NC(=O)[C@H](CCCNC(=N)N)NC(=O)[C@@H](CC(C)C)NC(=O)[C@H](C)N(C)C(=O)[C@H](CCCNC(=N)N)NC(=O)[C@H](Cc2ccc(-c3ccccc3)cc2)NC(=O)[C@H](C(C)C)NC(=O)[C@H](Cc2c[nH]c3ccccc23)NC(=O)[C@H](CC(=O)O)NC(=O)[C@H](CCc2ccc(O)cc2)NC(=O)[C@H](Cc2ccccc2)NC(=O)CSC[C@@H](C(=O)N[C@@H](C)C(N)=O)NC(=O)[C@H]([C@@H](C)O)NC(=O)[C@H](C(C)C)NC1=O` [Compound 1106] ({CH2CO}-F[hTyr]DWV[Bip]R[NMeA][dL]RLVTCA-NH2; thioether N-14): the IC50 came out at 0.07 µM.
`CC(C)C[C@@H]1NC(=O)[C@H](CCCNC(=N)N)NC(=O)[C@@H](C2CCCCC2)NC(=O)[C@H](C)N(C)C(=O)[C@H](CCCNC(=N)N)NC(=O)[C@H](Cc2ccc(-c3ccccc3)cc2)NC(=O)[C@H](C(C)C)NC(=O)[C@H](Cc2c[nH]c3ccccc23)NC(=O)[C@H](CC(=O)O)NC(=O)[C@H](Cc2ccc(O)cc2)NC(=O)[C@H](Cc2ccccc2)NC(=O)CSC[C@@H](C(=O)N[C@@H](C)C(N)=O)NC(=O)[C@H]([C@@H](C)O)NC(=O)[C@H](C(C)C)NC1=O` [Compound 1061] ({CH2CO}-FYDWV[Bip]R[NMeA][dChg]RLVTCA-NH2; thioether N-14): the IC50 was determined as 0.1 µM.
Then `CC(C)C[C@@H]1NC(=O)[C@H](CCN)NC(=O)[C@@H](CC(C)C)NC(=O)[C@H](C)N(C)C(=O)[C@H](CCCNC(N)=O)NC(=O)[C@H](Cc2ccc(-c3ccccc3)cc2)NC(=O)[C@H](C(C)C)NC(=O)[C@H](Cc2c[nH]c3ccccc23)NC(=O)[C@H](CC(=O)O)NC(=O)[C@H](Cc2ccc(O)cc2)NC(=O)[C@H](CN)NC(=O)CSC[C@@H](C(=O)N[C@@H](C)C(N)=O)NC(=O)[C@H]([C@@H](C)O)NC(=O)[C@H](C(C)C)NC1=O` [Compound 1345] ({CH2CO}-[Dap]YDWV[Bip][Cit][NMeA][dL][Dab]LVTCA-NH2; thioether N-14), with 0.01 µM; and `CC(C)C[C@@H]1NC(=O)[C@H](CCN)NC(=O)[C@@H](CC(C)C)NC(=O)[C@H](C)N(C)C(=O)[C@H](CCCNC(=N)N)NC(=O)[C@H](Cc2ccc(-c3ccsc3)cc2)NC(=O)[C@H](C(C)C)NC(=O)[C@H](Cc2c[nH]c3ccccc23)NC(=O)[C@H](CC(=O)O)NC(=O)[C@H](Cc2ccc(O)cc2)NC(=O)[C@H](CC(N)=O)NC(=O)CSC[C@@H](C(=O)N[C@@H](C)C(N)=O)NC(=O)[C@H]([C@@H](C)O)NC(=O)[C@H](C(C)C)NC1=O` [Compound 1224] ({CH2CO}-NYDWV[X36]R[NMeA][dL][Dab]LVTCA-NH2; thioether N-14), with 0.04 µM; and `CC(C)C[C@@H]1NC(=O)[C@H](CCN)NC(=O)[C@@H](CC(C)C)NC(=O)[C@H](C)N(C)C(=O)[C@H](CCCNC(=N)N)NC(=O)[C@H](Cc2ccc(-c3ccccc3)cc2)NC(=O)[C@H](C(C)C)NC(=O)[C@H](Cc2cccs2)NC(=O)[C@H](CC(=O)O)NC(=O)[C@H](Cc2ccc(O)cc2)NC(=O)[C@H](CC(N)=O)NC(=O)CSC[C@@H](C(=O)N[C@@H](C)C(N)=O)NC(=O)[C@H]([C@@H](C)O)NC(=O)[C@H](C(C)C)NC1=O` [Compound 1219] ({CH2CO}-NYD[2Thi]V[Bip]R[NMeA][dL][Dab]LVTCA-NH2; thioether N-14), with 0.26 µM.
Then `CC(C)C[C@@H]1NC(=O)[C@H](Cc2c[nH]c3ccccc23)NC(=O)[C@H](CC(=O)O)NC(=O)[C@H](Cc2ccc(O)cc2)NC(=O)[C@H](Cc2ccccc2)NC(=O)CSC[C@@H](C(=O)N[C@@H](C)C(N)=O)NC(=O)[C@H](CO)NC(=O)[C@H](C(C)C)NC(=O)[C@H](CC(C)C)NC(=O)[C@H](CCCCN)NC(=O)[C@@H](C)NC(=O)[C@H](C)N(C)C(=O)[C@H](CCC(=O)O)NC(=O)[C@H](Cc2ccc(-c3ccccc3)cc2)NC1=O` [Compound 1767] ({CH2CO}-FYDWL[Bip]E[NMeA][dA]KLVSCA-NH2; thioether N-14), with 0.04 µM.
